Columns and labels:
[1] = tested on: NLRP3 inflammasome signal 1; assay: NLRP3 inflammasome signal 1 in LPS-treated BMDMs (IB, FACS ROS, cytokine ELISA); type: cell-based, mice; details: for production of cytokines (NF-κB-induced): ELISA of supernatants; for generation of ROS: FACS
Experimental: (§1) FIG. 4 confirms that NAMPT-derived peptides inhibit activation of signal 1 and 2 of NLRP3. Specifically, (A-C) BMDMs were stimulated with LPS for 4 hours and pretreated with rNAMPT for 1 hour (A, B) or 18 hours (C). (A) WCLs were used for IB with αIkB-α, αP-IkB-α, or αActin. (B) FACS analysis for H2O2 (probe for 2′,7′-dichlorofluorescin diacetate) or O^2− (probe for dihydroethidium). Quantitative analysis (upper) of mean fluorescence intensities of H2O2 and O^2− and NADPH oxidase activity (lower), (C) Culture supernatants (SN) were harvested and analyzed for cytokine ELISA. (D, E) LPS-primed BMDMs were treated with rNAMPT for 1 hour and then activated with ATP for 30 minutes. (D) ELISA for IL-1β and IL-18. (E) IB in SN with αIL-1β p17, αIL-18 p18, or αCasp1 p10 and IB of WCL with αPro-IL-1β, αPro-IL-18, αPro-Casp1, or αActin. […] Data come from three independent experiments that yielded similar results. (B-D) Data are provided as mean±SD of three experiments. Significance difference compared to LPS+PBS (*p<0.05; **p<0.01; ***p<0.001);
(§2) FIG. 5 illustrates results confirming an effect of TAT-NAMPT or NAMPT peptide on inflammation. Specifically, (A) BMDMs were stimulated with LPS (100 ng/ml) for 18 hours and pretreated with rNAMPT for 1 hour. Culture supernatants were collected and analyzed for cytokine ELISA. (B) LPS-primed BMDMs were treated with rNAMPT for 1 hour and then activated with nigericin for 30 minutes and DSS for 24 hours. ELISA for IL-1B and IL-18. […] The shown data are the mean±SD of three experiments. Significant difference comparing LPS+PBS (*p<0.05; **p<0.01; ***p<0.001);
Primary bone marrow-derived macrophages (BMDMs) were harvested from mice and cultured in DMEM in the presence of M-CSF (R&D Systems, 416-ML) for 3 to 5 days. HEK293T cells (ATCC-11268; American Type Culture Collection) were cultured in DMEM (Gibco) containing 10% FBS (Gibco), nonessential amino acids, sodium pyruvate, streptomycin (100 μg/mL) and penicillin G (100 IU/mL).
Polypeptides were separated by SDS-polyacrylamide gel electrophoresis and then transferred to a PVDF membrane for immunoblotting (IB) (Bio-Rad, Hercules, CA, USA). For immunodetection, specific antibodies were required, and Chemiluminescence (ECL; Millipore, MA, USA) was used to visualize an antibody bound to a target. In addition, a Vilber chemiluminescence analyzer was used to detect the antibody (Fusion SL3; Vilber Lourmat, Colégien, France).
Flow cytometry was used to quantify intracellular ROS levels. The cells were cultured in a serum-free medium and stained with 2 μM dihydroethidium (DHE for O^2−; Calbiochem) or 1 μM 2′,7′-dichlorodihydrofluorescein diacetate (H2DCFDA for H2O2; Calbiochem) as a redox-sensitive dye. mAbs were incubated at 4° C. for 20 to 30 minutes to determine cell surface protein expression, and cells were fixed using a Cytofix/Cytoperm Solution (BD Biosciences), and in a specific case, mAb incubation was performed to detect intracellular proteins. The used mAb clones were the following: ITGA6 (GoH3, BD Pharmingen™) and ITGB1 (HMβ1-1, BD Pharmingen™). The cells were washed completely and quickly with pulse spinning before being analyzed in a FACS Calibur (BD Biosciences, San Jose, CA, USA). CellQuest software (BD Biosciences) was used to visualize the data, and FlowJo software was used to analyze the data (Tree Star, Ash-land, OR, USA).
TNF-α, IL-6, IL-1β and IL-18 levels were measured in cell culture supernatants and mouse serum using the BD OptEIA ELISA system (BD Pharmingen). All experiments were performed according to the manufacturer's protocol.
To determine the effect of NAMPT peptides related to signal 1 for the NLRP3 inflammasome in macrophages, LPS-treated BMDMs were exposed to different concentrations of NAMPT peptides (aa 57-65, aa 52-56, or aa 52-65). […] Thus, the TAT-NAMPT peptides were less likely to inhibit the interaction of eNAMPT with TLR4 or CYBB.

[2] = tested on: NLRP3 inflammasome signal 2; assay: NLRP3 inflammasome signal 2 in LPS-primed BMDMs activated with ATP, nigericin or DSS (ELISA, IB); type: cell-based, mice
Experimental: as §1, §2
Primary bone marrow-derived macrophages (BMDMs) were harvested from mice and cultured in DMEM in the presence of M-CSF (R&D Systems, 416-ML) for 3 to 5 days. […]
TNF-α, IL-6, IL-1β and IL-18 levels were measured in cell culture supernatants and mouse serum using the BD OptEIA ELISA system (BD Pharmingen). […]

TLR4 = TLR4 (Homo sapiens, UniProt O00206); assay: Fluorescence binding titration of labeled TLR4 with unlabeled NAMPT; details: fluorescently labeled TLR4 titrated with unlabeled NAMPT, curve fit; read-out: Kd of NAMPT-TLR4 interaction
TLR4, sequence (O00206 24-839, species assumed): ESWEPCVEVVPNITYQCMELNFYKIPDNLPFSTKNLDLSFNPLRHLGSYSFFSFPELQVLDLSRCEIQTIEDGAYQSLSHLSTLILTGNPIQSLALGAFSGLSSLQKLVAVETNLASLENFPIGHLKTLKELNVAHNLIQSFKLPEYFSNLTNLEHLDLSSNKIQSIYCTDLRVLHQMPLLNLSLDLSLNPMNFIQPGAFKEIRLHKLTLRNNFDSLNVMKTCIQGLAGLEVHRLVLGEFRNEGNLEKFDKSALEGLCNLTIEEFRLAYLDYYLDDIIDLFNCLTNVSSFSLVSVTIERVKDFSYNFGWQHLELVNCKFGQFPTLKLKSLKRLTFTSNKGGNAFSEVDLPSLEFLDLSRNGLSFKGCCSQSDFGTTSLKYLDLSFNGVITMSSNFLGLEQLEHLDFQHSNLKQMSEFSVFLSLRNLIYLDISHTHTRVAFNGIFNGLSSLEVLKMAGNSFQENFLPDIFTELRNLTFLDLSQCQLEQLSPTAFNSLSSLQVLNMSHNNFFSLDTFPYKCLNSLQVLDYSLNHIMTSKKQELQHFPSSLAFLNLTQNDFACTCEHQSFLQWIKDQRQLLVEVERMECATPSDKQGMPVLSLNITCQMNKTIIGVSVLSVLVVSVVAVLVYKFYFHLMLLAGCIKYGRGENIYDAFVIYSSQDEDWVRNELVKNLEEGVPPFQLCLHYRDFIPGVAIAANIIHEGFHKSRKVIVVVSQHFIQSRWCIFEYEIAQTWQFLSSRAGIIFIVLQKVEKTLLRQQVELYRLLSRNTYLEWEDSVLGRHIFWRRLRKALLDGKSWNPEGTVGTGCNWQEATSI

CYBB = target: T1, CYBB (Homo sapiens, UniProt P04839); assay: Fluorescence binding titration of labeled CYBB with unlabeled NAMPT; details: fluorescently labeled CYBB titrated with unlabeled NAMPT, curve fit; read-out: Kd of NAMPT-CYBB interaction
T1 sequence (P04839 1-570): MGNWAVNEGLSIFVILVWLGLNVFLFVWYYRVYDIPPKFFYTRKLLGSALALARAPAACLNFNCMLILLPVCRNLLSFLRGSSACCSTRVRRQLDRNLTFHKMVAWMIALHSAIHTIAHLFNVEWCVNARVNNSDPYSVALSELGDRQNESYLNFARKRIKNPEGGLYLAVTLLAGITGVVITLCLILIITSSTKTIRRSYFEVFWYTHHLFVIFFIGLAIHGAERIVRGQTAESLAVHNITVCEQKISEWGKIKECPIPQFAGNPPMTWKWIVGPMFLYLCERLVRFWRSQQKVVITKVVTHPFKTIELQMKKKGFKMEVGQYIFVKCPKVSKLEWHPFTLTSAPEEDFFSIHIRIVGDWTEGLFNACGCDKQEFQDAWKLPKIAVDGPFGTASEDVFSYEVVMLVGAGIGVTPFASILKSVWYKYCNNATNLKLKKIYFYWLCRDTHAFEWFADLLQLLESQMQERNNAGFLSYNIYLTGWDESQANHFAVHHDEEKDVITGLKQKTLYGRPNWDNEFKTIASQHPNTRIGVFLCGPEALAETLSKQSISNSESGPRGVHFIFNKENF

NAMPT-TLR4 binding = assay: Co-immunoprecipitation of Myc-NAMPT with Flag-TLR4 in 293T cells treated with TAT-NAMPT peptides; type: cell-based; details: Myc-NAMPT and Flag-TLR4, peptide 6 hours, 5 μM or 1, 5, 10 μM
Experimental: (§3) FIG. 3 illustrates experimental design and results for identifying an essential region of NAMPT for binding to TLR4 and CYBB. Specifically, (A) Schematic diagram (upper) of the structures of NAMPT and TLR4. 293T cells were transfected with GST-NAMPT or its mutants and Flag-TLR4. GST pulldown was performed with 293T cells and then IB was performed using αFlag. WCLs were used for IB using αGST, αFlag, or αActin (lower, left in A). 293T cells were transfected with Flag-TLR4 or its mutants and Myc-NAMPT. The 293T cells were used for IP with αMyc, followed by IB with αFlag. WCLs were used for IB using αMyc, αFlag or αActin (lower, right in A). (B) 293T cells were transfected with Myc-NAMPT and Flag-TLR4 and treated with NAMPT peptide or its mutants for 6 hours (5 μM, left; 1, 5, 10 μM, right). The 293T cells were used for IP with αFlag, followed by IB with αMyc. WCLs were used for IB using αMyc, αFlag, or αActin. (C) Schematic diagram (upper) of the structures of CYBB. 293T cells were transfected with GST-NAMPT or its mutants and V5-CYBB (lower, left in C). The 293T cells were transfected with GST-CYBB or its mutants and Myc-NAMPT (lower, right in C). The 293T cells were subjected to GST pull-down, followed by IB with αV5 or αMyc. WCLs were used for IB using αGST, αMyc, a V5 or αActin. […]

NAMPT-CYBB binding = target: T2, NAMPT-CYBB binding (Homo sapiens, UniProt P04839); assay: Co-immunoprecipitation of Myc-NAMPT with V5-CYBB in 293T cells treated with TAT-NAMPT peptides; type: cell-based; details: Myc-NAMPT and V5-CYBB, peptide 6 hours, 5 μM or 1, 5, 10 μM
T2 construct: The full-length (FL) CYBB and mutant plasmids were constructed as follows; expressed in transfected cells; host or cells: HEK293T (293T)
T2 sequence (P04839 1-570): T1 sequence (P04839 1-570)
Experimental: as §3

NAMPT peptides aa 52-56: peptide of amino acids 52 to 56 of NAMPT (SEQ ID NO: 1), binds CYBB (VKYEE; listed as Homo sapiens)
activation of NF-κB [1]: partially inhibited | production of cytokines (NF-κB-induced) [1]: partially inhibited | generation of ROS [1]: partially inhibited

NAMPT peptides aa 52-65: peptide of amino acids 52 to 65 of NAMPT (SEQ ID NO: 1), binds TLR4 and CYBB (VKYEETVFYGLQYI; listed as Homo sapiens)
action of eNAMPT on NLRP3 inflammasome signal 2 ([2]; FIG. 4D lower, FIG. 4E right): specifically inhibited the action of eNAMPT | ATP-induced caspase-1 cleavage ([2]; LPS-primed BMDMs, ATP 30 minutes): efficiently inhibited | maturation of IL-1β and IL-18 ([2]; LPS-primed BMDMs, ATP, nigericin or DSS stimulation): efficiently inhibited | production of cytokines (NF-κB-induced) [1]: markedly inhibited | generation of ROS [1]: markedly inhibited

NAMPT peptides aa 57-65: peptide of amino acids 57 to 65 of NAMPT (SEQ ID NO: 1), binds TLR4 (TVFYGLQYI; listed as Homo sapiens)
activation of NF-κB [1]: partially inhibited | production of cytokines (NF-κB-induced) [1]: partially inhibited | generation of ROS [1]: partially inhibited

Nicotinamide phosphoribosyl transferase [NAMPT]
Kd (TLR4): 219 nM | Kd (CYBB): 896 nM

TAT-NAMPT (aa 40-69) (GRKKRRQRRRPQREKKTENSKLRKVKYEETVFYGLQYILNKY)
binding of NAMPT to TLR4 (IP/IB) (NAMPT-TLR4 binding): reduced the binding of NAMPT to TLR4 | binding of NAMPT to CYBB (IP/IB) (NAMPT-CYBB binding): bound to CYBB

From US20240299505A1, “COMPOSITION FOR IMPROVING, PREVENTING OR TREATING INFLAMMATORY BOWEL DISEASE COMPRISING NAMPT-DERIVED PEPTIDE AS ACTIVE INGREDIENT” (Industry-University Cooperation Foundation Hanyang …, priority 2023, published 2024)
